This is an account of results in patent US4895852A, “Antitumor alkaloids” (Harbor Branch Oceanographic Institution, Inc., priority 1987, dated 1990).

Converted amounts (≈) assume the structure as drawn.

In this test the test system is P388 mouse leukemia cells. The test can be described thus: P388 mouse leukemia cell assay. The test is classed as cell-based. As to conditions: for minimal effective concentration: P388, 48 h, summary sentence on Table 1, mouse leukemia cells, read-out: good antitumor activity at concentrations of at least (against mouse leukemia cells); for IC50: P388 mouse leukemia cells, 48 hours, 37°, 10% CO2. As for the experimental part: P388 mouse leukemia cells are grown in Dulbecco MEM medium with 10% horse serum, 4mM glutamine, and 20ug/ml gentamycin (Biologos, Inc.). Cells are incubated in 10% CO2 and subcultured 2 times per week.
1. Add compound to each well of a 24-well plate or tube and allow solvent to evaporate to dryness.
2. Add 2ml (1.2×10^5) cells to each well or tube and mix.
3. Incubate in 10% CO2 , at 37° for 48 hours.
4. Read platees with an inverted microscope, scoring activity from 1+ to 4+ as follows: ND (not detectable), >90%; 1+, 75-90%; 2+, 50-74%; 3+, 25-49%; 4+, <25% of control growth. Cell counts are performed on each tube and results are reported as percent of control. Alternatively, scoring may be expressed as IC50 which represents the minimum concentration of the composition required to inhibit 50% of the cell growth on the plate. […]

As usually defined, the IC50 is the concentration that gives 50% inhibition. A lower IC50 goes with greater potency in that assay. Take `O=C1CCCN2[C@@H](CC1)C[C@]13CN4CCCC/C=C\CC[C@](O)(C=C(c5nccc6c5[nH]c5c(O)cccc56)C1CC4)[C@H]23` (stereo partly shown) [Manzamine F]: the minimal effective concentration was at least 5 µg/mL and the IC50 came out at 5 µg/mL (≈ 8.61 µM).
In the same order, the values of `O=C1CCCN2C(CC1)CC13CN4CCCCC=CCCC(O)(C=C(c5nccc6c5[nH]c5ccccc56)C1CC4)C23` (stereo not shown) [Manzamine E] are at least 5 µg/mL and 5 µg/mL (≈ 8.85 µM).
